# Data published in patent US20260200939A1, “MOLECULAR GLUE DEGRADER COMPOUNDS AND USES THEREOF” (Novartis AG, priority 2022, published 2026).
# Legend:
# BRD4 long = target: T1, BRD4 long (Homo sapiens, UniProt O60885); assay: BRD4 (long) degradation assay, Western blotting; assay type: cell-based
# T1 construct: endogenous in cells; host or cells: HEK293T
# Method: (§1) C33A cells were purchased from American Type Culture Collection (ATCC) and were cultured in Dulbecco's Modified Eagle Medium (DMEM) containing 10% (v/v) fetal bovine serum (FBS) and maintained at 37° C. with 5% CO2. 22RV1 cells were purchased from the ATCC and were cultured in RPMI-1640 Medium containing 10% (v/v) FBS and maintained at 37° C. with 5% CO2. HEK293T cells were obtained from the UC Berkeley Cell Culture Facility and were cultured in DMEM containing 10% (v/v) FBS and maintained at 37° C. with 5% CO2. K562 cells were obtained from the UC Berkeley Cell Culture Facility and were cultured in Iscove's Modified Dulbecco's Medium (IMDM) containing 10% (v/v) FBS and maintained at 37° C. with 5% CO2. MV-4-11 cells were obtained from the ATCC and were cultured in IMDM containing 10% (v/v) FBS and maintained at 37° C. with 5% CO2. A549 cells were obtained from the ATCC and were cultured in F-12K Medium containing 10% (v/v) FBS and maintained at 37° C. with 5% CO2. Mino cells were obtained from the ATCC and were cultured in RPMI-1640 Medium containing 10% (v/v) FBS and maintained at 37° C. with 5% CO2. LNCaP cells were obtained from the ATCC and were cultured in RPMI-1640 Medium containing 10% (v/v) FBS and maintained at 37° C. with 5% CO2. Unless otherwise specified, all cell culture materials were purchased from Gibco. It is not known whether HEK293T cells are from male or female origin.
# (§2) Cells were washed twice with cold PBS, scraped, and pelleted by centrifugation (700 g, 5 min, 4° C.). Pellets were resuspended in PBS, sonicated, clarified by centrifugation (12,000 g, 10 min, 4° C.), and lysate was transferred to new low-adhesion microcentrifuge tubes. Proteome concentrations were determined using BCA assay and lysate was diluted to appropriate working concentrations.
# (§3) Proteins were resolved by SDS/PAGE and transferred to nitrocellulose membranes using the Trans-Blot Turbo transfer system (Bio-Rad). Membranes were blocked with 5% BSA in Tris-buffered saline containing Tween 20 (TBS-T) solution for 30 min at RT, washed in TBS-T, and probed with primary antibody diluted in recommended diluent per manufacturer overnight at 4° C. After 3 washes with TBS-T, the membranes were incubated in the dark with IR680- or IR800-conjugated secondary antibodies at 1:10,000 dilution in 5% BSA in TBS-T at RT for 1 h. After 3 additional washes with TBST, blots were visualized using an Odyssey Li-Cor fluorescent scanner. The membranes were stripped using ReBlot Plus Strong Antibody Stripping Solution (EMD Millipore) when additional primary antibody incubations were performed. Antibodies used in this study were CDK4 (Abcam ab108357), Vinculin (Abcam ab129002), GAPDH (Cell Signaling Technology 14C10), RNF126 (Santa Cruz Biotechnology sc-376005), BRD4 (Abcam ab128874), Beta Actin (Cell Signaling Technology 13E5), PDE5 (Abcam ab259945), AR-V7 (Abcam ab273500), c-Abl (Santa Cruz Biotechnology sc-23), SMARCA2 (Abcam ab240648), LRRK2 (Abcam ab133474), BTK (Cell Signaling Technology D3H5), Androgen Receptor (Abcam ab133273).
# BRD4 short = target: T2, BRD4 short (Homo sapiens, UniProt O60885); assay: BRD4 (short) degradation assay, Western blotting; assay type: cell-based
# T2 construct: endogenous in cells; host or cells: HEK293T
# Method: as §1, §2, §3
# [1] = first value of cell (long/short)
# [2] = second value of cell (long/short)
Compound,DC50 (BRD4 long; [1]) [nM],DC50 (BRD4 short; [2]) [nM],"DC50 (BRD4 long; first value of cell, range with lower bound in nM and upper bound in μM) [nM]","DC50 (BRD4 short; second value of cell, range with lower bound in nM and upper bound in μM) [nM]"
"COc1ccc(C(=O)/C(C)=C/C(=O)N2CCN(C(=O)C[C@@H]3N=C(c4ccc(Cl)cc4)c4c(sc(C)c4C)-n4c(C)nnc43)CC2)cc1 [Compound 139, (S,E)-4-(4-(2-(4-(4-chlorophenyl)-2,3,9-trimethyl-6H-thieno[3,2-f][1,2,4]triazolo[4,3-a][1,4]diazepin-6-yl)acetyl)piperazin-1-yl)-1-(4-methoxyphenyl)-2-methylbut-2-ene-1,4-dione]",> 1000,> 1000,,
"COc1ccccc1C(=O)/C=C/C(=O)N1CCN(C(=O)C[C@@H]2N=C(c3ccc(Cl)cc3)c3c(sc(C)c3C)-n3c(C)nnc32)CC1 [Compound 142, (S,E)-1-(4-(2-(4-(4-chlorophenyl)-2,3,9-trimethyl-6H-thieno[3,2-f][1,2,4]triazolo[4,3-a][1,4]diazepin-6-yl)acetyl)piperazin-1-yl)-4-(2-methoxyphenyl)but-2-ene-1,4-dione]",< 100,< 100,,
"COc1ccc(C(=O)/C=C(\C#N)C(=O)N2CCN(C(=O)C[C@@H]3N=C(c4ccc(Cl)cc4)c4c(sc(C)c4C)-n4c(C)nnc43)CC2)cc1 [Compound 144, (S,E)-2-(4-(2-(4-(4-chlorophenyl)-2,3,9-trimethyl-6H-thieno[3,2-f][1,2,4]triazolo[4,3-a][1,4]diazepin-6-yl)acetyl)piperazine-1-carbonyl)-4-(4-methoxyphenyl)-4-oxobut-2-enenitrile]",> 1000,> 1000,,
"Cc1sc2c(c1C)C(c1ccc(Cl)cc1)=N[C@@H](CC(=O)N1CCN(C(=O)/C=C/C(=O)c3ccc(F)cc3)CC1)c1nnc(C)n1-2 [Compound 202, (S,E)-1-(4-(2-(4-(4-chlorophenyl)-2,3,9-trimethyl-6H-thieno[3,2-f][1,2,4]triazolo[4,3-a][1,4]diazepin-6-yl)acetyl)piperazin-1-yl)-4-(4-fluorophenyl)but-2-ene-1,4-dione]",< 100,< 100,,
"COc1ccc(C(=O)/C=C/C(=O)N[C@H]2C[C@H](NC(=O)C[C@@H]3N=C(c4ccc(Cl)cc4)c4c(sc(C)c4C)-n4c(C)nnc43)C2)cn1 [Compound 207, (E)-N-((1S,3r)-3-(2-((S)-4-(4-chlorophenyl)-2,3,9-trimethyl-6H-thieno[3,2-f][1,2,4]triazolo[4,3-a][1,4]diazepin-6-yl)acetamido)cyclobutyl)-4-(6-methoxypyridin-3-yl)-4-oxobut-2-enamide]",10 to 100,10 to 100,,
"Cc1sc2c(c1C)C(c1ccc(Cl)cc1)=N[C@@H](CC(=O)N1CCN(C(=O)/C=C/C(=O)c3ccc4c(c3)OCC4)CC1)c1nnc(C)n1-2 [Compound 208, (S,E)-1-(4-(2-(4-(4-chlorophenyl)-2,3,9-trimethyl-6H-thieno[3,2-f][1,2,4]triazolo[4,3-a][1,4]diazepin-6-yl)acetyl)piperazin-1-yl)-4-(2,3-dihydrobenzofuran-6-yl)but-2-ene-1,4-dione]",< 10,< 10,,
"Cc1sc2c(c1C)C(c1ccc(Cl)cc1)=N[C@@H](CC(=O)N[C@H]1C[C@H](NC(=O)/C=C/C(=O)c3ccc4c(c3)OCC4)C1)c1nnc(C)n1-2 [Compound 209, (E)-N-((1S,3r)-3-(2-((S)-4-(4-chlorophenyl)-2,3,9-trimethyl-6H-thieno[3,2-f][1,2,4]triazolo[4,3-a][1,4]diazepin-6-yl)acetamido)cyclobutyl)-4-(2,3-dihydrobenzofuran-6-yl)-4-oxobut-2-enamide]",,,100 to 1000,100 to 1000
"Cc1sc2c(c1C)C(c1ccc(Cl)cc1)=N[C@@H](CC(=O)N1CCN(C(=O)/C=C/C(=O)c3ccc4c(c3)CCO4)CC1)c1nnc(C)n1-2 [Compound 210, (S,E)-1-(4-(2-(4-(4-chlorophenyl)-2,3,9-trimethyl-6H-thieno[3,2-f][1,2,4]triazolo[4,3-a][1,4]diazepin-6-yl)acetyl)piperazin-1-yl)-4-(2,3-dihydrobenzofuran-5-yl)but-2-ene-1,4-dione]",< 100,< 100,,
"Cc1sc2c(c1C)C(c1ccc(Cl)cc1)=N[C@@H](CC(=O)N[C@H]1C[C@H](NC(=O)/C=C/C(=O)N3CC4(COC4)C3)C1)c1nnc(C)n1-2 [Compound 254, (E)-N-((1S,3r)-3-(2-((S)-4-(4-chlorophenyl)-2,3,9-trimethyl-6H-thieno[3,2-f][1,2,4]triazolo[4,3-a][1,4]diazepin-6-yl)acetamido)cyclobutyl)-4-oxo-4-(2-oxa-6-azaspiro[3.3]heptan-6-yl)but-2-enamide]",,> 5000,,

# Second part, the compound after the results:
DC50 (BRD4 long; [1]) [nM],DC50 (BRD4 short; [2]) [nM],"DC50 (BRD4 long; first value of cell, range with lower bound in nM and upper bound in μM) [nM]","DC50 (BRD4 short; second value of cell, range with lower bound in nM and upper bound in μM) [nM]",Compound
< 100,< 100,,,"Cc1sc2c(c1C)C(c1ccc(Cl)cc1)=N[C@@H](CC(=O)N1CCN(C(=O)/C=C/C(=O)c3ccccc3)CC1)c1nnc(C)n1-2 [Compound 140, (S,E)-1-(4-(2-(4-(4-chlorophenyl)-2,3,9-trimethyl-6H-thieno[3,2-f][1,2,4]triazolo[4,3-a][1,4]diazepin-6-yl)acetyl)piperazin-1-yl)-4-phenylbut-2-ene-1,4-dione]"
> 1000,> 1000,,,"COc1ccc(C(=O)/C=C(\C)C(=O)N2CCN(C(=O)C[C@@H]3N=C(c4ccc(Cl)cc4)c4c(sc(C)c4C)-n4c(C)nnc43)CC2)cc1 [Compound 141, (S,E)-1-(4-(2-(4-(4-chlorophenyl)-2,3,9-trimethyl-6H-thieno[3,2-f][1,2,4]triazolo[4,3-a][1,4]diazepin-6-yl)acetyl)piperazin-1-yl)-4-(4-methoxyphenyl)-2-methylbut-2-ene-1,4-dione]"
< 100,< 100,,,"COc1cccc(C(=O)/C=C/C(=O)N2CCN(C(=O)C[C@@H]3N=C(c4ccc(Cl)cc4)c4c(sc(C)c4C)-n4c(C)nnc43)CC2)c1 [Compound 143, (S,E)-1-(4-(2-(4-(4-chlorophenyl)-2,3,9-trimethyl-6H-thieno[3,2-f][1,2,4]triazolo[4,3-a][1,4]diazepin-6-yl)acetyl)piperazin-1-yl)-4-(3-methoxyphenyl)but-2-ene-1,4-dione]"
10 to 100,10 to 100,,,"Cc1sc2c(c1C)C(c1ccc(Cl)cc1)=N[C@@H](CC(=O)N1CCN(C(=O)/C=C/C(=O)c3ccc4c(c3)NC(=O)CO4)CC1)c1nnc(C)n1-2 [Compound 203, (S,E)-1-(4-(2-(4-(4-chlorophenyl)-2,3,9-trimethyl-6H-thieno[3,2-f][1,2,4]triazolo[4,3-a][1,4]diazepin-6-yl)acetyl)piperazin-1-yl)-4-(3-oxo-3,4-dihydro-2H-benzo[b][1,4]oxazin-6-yl)but-2-ene-1,4-dione]"
10 to 100,10 to 100,,,"Cc1sc2c(c1C)C(c1ccc(Cl)cc1)=N[C@@H](CC(=O)N[C@H]1C[C@H](NC(=O)/C=C/C(=O)c3ccccc3)C1)c1nnc(C)n1-2 [Compound 204, (E)-N-((1S,3r)-3-(2-((S)-4-(4-chlorophenyl)-2,3,9-trimethyl-6H-thieno[3,2-f][1,2,4]triazolo[4,3-a][1,4]diazepin-6-yl)acetamido)cyclobutyl)-4-oxo-4-phenylbut-2-enamide]"
10 to 100,10 to 100,,,"COc1ccc(C(=O)/C=C/C(=O)N2CCN(C(=O)C[C@@H]3N=C(c4ccc(Cl)cc4)c4c(sc(C)c4C)-n4c(C)nnc43)CC2)cn1 [Compound 205, (S,E)-1-(4-(2-(4-(4-chlorophenyl)-2,3,9-trimethyl-6H-thieno[3,2-f][1,2,4]triazolo[4,3-a][1,4]diazepin-6-yl)acetyl)piperazin-1-yl)-4-(6-methoxypyridin-3-yl)but-2-ene-1,4-dione]"
10 to 100,10 to 100,,,"COc1ccc(C(=O)/C=C/C(=O)N[C@H]2C[C@@H](NC(=O)C[C@@H]3N=C(c4ccc(Cl)cc4)c4c(sc(C)c4C)-n4c(C)nnc43)C2)cn1 [Compound 206, (E)-N-((1R,3s)-3-(2-((S)-4-(4-chlorophenyl)-2,3,9-trimethyl-6H-thieno[3,2-f][1,2,4]triazolo[4,3-a][1,4]diazepin-6-yl)acetamido)cyclobutyl)-4-(6-methoxypyridin-3-yl)-4-oxobut-2-enamide]"
